According to ChEMBL document CHEMBL4190326, “Novel Gomisin B analogues as potential cytotoxic agents: Design, synthesis, biological evaluation and docking studies” (Eur J Med Chem, 2017):
Calls of active or inactive are those of the source. No cut-off for these calls is given here.

Experiments:
SiHa = test: Cytotoxicity against human SiHa cells assessed as reduction in cell viability measured after 48 hrs by SRB assay; assay type: functional, cell-based
PANC-1 = test: Cytotoxicity against human PANC1 cells assessed as reduction in cell viability measured after 48 hrs by SRB assay; assay type: functional, cell-based; conditions: PANC-1, 48 h
IMR-32 = test: Cytotoxicity against human IMR32 cells assessed as reduction in cell viability measured after 48 hrs by SRB assay; assay type: functional, cell-based; conditions: IMR-32, 48 h
DU-145 = test: Cytotoxicity against human DU145 cells assessed as reduction in cell viability measured after 48 hrs by SRB assay; assay type: functional, cell-based; conditions: DU-145, 48 h
[1] = Selectivity index, ratio of IC50 for HEK293 cells to IC50 for human DU145 cells; assay type: toxicity; conditions: HEK293 cells versus DU145 cells, read-out: Ratio IC50
A549 = test: Cytotoxicity against human A549 cells assessed as reduction in cell viability measured after 48 hrs by SRB assay; assay type: functional, cell-based; conditions: A549, 48 h
MDA-MB-231 = test: Cytotoxicity against human MDA-MB-231 cells assessed as reduction in cell viability measured after 48 hrs by SRB assay; assay type: functional, cell-based; conditions: MDA-MB-231, 48 h
HEK293 = test: Cytotoxicity against HEK293 cells assessed as reduction in cell viability measured after 48 hrs by SRB assay; assay type: cell-based; conditions: Homo sapiens, HEK293, 48 h
Bos taurus [2] = organism: Bos taurus; test: Inhibition of bovine brain tubulin polymerization measured for 1 hr at 1 min interval by fluorescence assay relative to control
Tubulin (Homo sapiens) [3] = molecular target: T1, Tubulin (Homo sapiens) (UniProt P68371+Q9H4B7+P0DPH7+P68366+Q13509+Q71U36+P04350+Q3ZCM7+P07437+P68363+Q9BQE3+Q6PEY2+Q13885+Q9BVA1+Q9BUF5); test: Induction of tubulin polymerization in human HeLa cells assessed as increase in insoluble tubulin fraction after 24 hrs by Western blot analysis; assay type: cell-based
Tubulin (Homo sapiens) [4] = molecular target: T1, Tubulin (Homo sapiens); test: Induction of tubulin polymerization in human HeLa cells assessed as multiple spindle formation after 24 hrs by DAPI staining/confocal microscopy-based immunofluorescence analysis; assay type: cell-based
HeLa [5] = test: Cell cycle arrest in human HeLa cells assessed as G2/M phase accumulation after 24 hrs by propidium iodide staining based flow cytometric analysis (reference value: 29.18%); assay type: functional
HeLa [6] = test: Cell cycle arrest in human HeLa cells assessed as G2/M phase accumulation after 24 hrs by propidium iodide staining based flow cytometric analysis; assay type: functional
HeLa [7] = test: Cell cycle arrest in human HeLa cells assessed as G2/M phase accumulation at 5 uM after 24 hrs by propidium iodide staining based flow cytometric analysis (reference value: 29.18%); assay type: functional
Tubulin (Homo sapiens) [8] = molecular target: T1, Tubulin (Homo sapiens); test: Induction of tubulin polymerization in human HeLa cells assessed as chromosomal alignment on metaphase plate at 10 uM after 24 hrs by DAPI staining/confocal microscopy-based immunofluorescence analysis; assay type: cell-based
HeLa [9] = test: Cell cycle arrest in human HeLa cells assessed as G2/M phase accumulation at 10 uM after 24 hrs by propidium iodide staining based flow cytometric analysis (reference value: 29.18%); assay type: functional
HeLa [10] = test: Cell cycle arrest in human HeLa cells assessed as G2/M phase accumulation at 20 uM after 24 hrs by propidium iodide staining based flow cytometric analysis (reference value: 29.18%); assay type: functional
Bos taurus [11] = organism: Bos taurus; test: Induction of bovine brain tubulin polymerization at 5 uM measured for 1 hr at 1 min interval by fluorescence assay relative to control

Compound	IC50 (SiHa) [µM]	IC50 (PANC-1) [µM]	IC50 (IMR-32) [µM]	IC50 (DU-145) [µM]	selectivity ratio [1]	IC50 (A549) [µM]	IC50 (MDA-MB-231) [µM]	IC50 (HEK293) [µM]	fold change (FC) (Bos taurus [2])	Activity (Tubulin (Homo sapiens) [3])	Activity (Tubulin (Homo sapiens) [4])	Activity (HeLa [5]) [%]	Activity (HeLa [6])	Activity (HeLa [7]) [%]	Activity (Tubulin (Homo sapiens) [8])	Activity (HeLa [9]) [%]	Activity (HeLa [10]) [%]	fold change (FC) (Bos taurus [11])
COc1cc2c(c(OC)c1OC)-c1c(cc3c(c1OC)OCO3)C[C@H](C)[C@@](C)(O)/C2=N/OCc1cn(CC(=O)Nc2ccc(C)cc2)nn1	64.9	71.6	79.2	86.4	1.15	84.6	72.6	> 100	–	–	–	–	–	–	–	–	–	–
COc1cc2c(c(OC)c1OC)-c1c(cc3c(c1OC)OCO3)C[C@H](C)[C@@](C)(O)/C2=N/OCc1cn(-c2ccc(I)cc2)nn1	76.4	83.4	89.7	89.4	1.1	90.8	76.8	> 100	–	–	–	–	–	–	–	–	–	–
C/C=C(/C)C(=O)O[C@H]1c2cc(OC)c(OC)c(OC)c2-c2c(cc3c(c2OC)OCO3)C[C@H](C)[C@@]1(C)O [ARISANSCHININ N]	51.2	53.6	66.8	64.7	1.6	55.1	60.5	52	–	–	–	–	–	–	–	–	–	–
CC(=O)O[C@H]1C(=O)[C@@]2(C)[C@H]([C@H](OC(=O)c3ccccc3)[C@]3(O)C[C@H](OC(=O)[C@H](O)[C@@H](NC(=O)c4ccccc4)c4ccccc4)C(C)=C1C3(C)C)[C@]1(OC(C)=O)CO[C@@H]1C[C@@H]2O	–	–	–	–	–	–	–	–	2.68	Active	Active	–	–	–	–	–	–	–
COc1cc2c(c(OC)c1OC)-c1c(cc3c(c1OC)OCO3)C[C@H](C)[C@@](C)(O)/C2=N/OCc1cn(-c2ccc(C(C)=O)cc2)nn1	71.1	80.3	86.4	92.4	1.08	95.7	70.8	> 100	–	–	–	–	–	–	–	–	–	–
COc1cc(-n2cc(CO/N=C3\c4cc(OC)c(OC)c(OC)c4-c4c(cc5c(c4OC)OCO5)C[C@H](C)[C@@]3(C)O)nn2)cc(OC)c1Cl	83.2	86.4	79.1	94.7	1.1	94.2	73.2	> 100	–	–	–	–	–	–	–	–	–	–
COc1cc2c(c(OC)c1OC)-c1c(cc3c(c1OC)OCO3)C[C@H](C)[C@@](C)(O)/C2=N/OCc1cn(-c2ccc(Cl)cc2)nn1	98.5	92.7	83.9	99.4	1.01	> 100	82.6	> 100	–	–	–	–	–	–	–	–	–	–
COc1cc2c(c(OC)c1OC)-c1c(cc3c(c1OC)OCO3)C[C@H](C)[C@@](C)(O)/C2=N/OCc1cn(CC(=O)Nc2ccccc2)nn1	88.6	91.1	86.3	91.5	1.1	93.7	79.8	> 100	–	–	–	–	–	–	–	–	–	–
COc1cc2c(c(OC)c1OC)-c1c(cc3c(c1OC)OCO3)C[C@H](C)[C@@](C)(O)/C2=N/OCc1cn(-c2cccc(C)c2Cl)nn1	69.2	81.9	78.3	88.6	1.1	85.6	73.8	> 100	–	–	–	–	–	–	–	–	–	–
CCc1ccc(-n2cc(CO/N=C3\c4cc(OC)c(OC)c(OC)c4-c4c(cc5c(c4OC)OCO5)C[C@H](C)[C@@]3(C)O)nn2)cc1	89.7	83.4	75.8	91.7	1.1	93.8	79.1	> 100	–	–	–	–	–	–	–	–	–	–
COc1cc2c(c(OC)c1OC)-c1c(cc3c(c1OC)OCO3)C[C@H](C)[C@@](C)(O)/C2=N/OCc1cn(-c2cc(C)cc(C)c2)nn1	85.1	89.3	79.8	90.6	1.1	91.7	81.4	> 100	–	–	–	–	–	–	–	–	–	–
COc1cc2c(c(OC)c1OC)-c1c(cc3c(c1OC)OCO3)C[C@H](C)[C@@](C)(O)/C2=N/OCc1cn(-c2cccc([N+](=O)[O-])c2)nn1	96.5	95.7	86.1	98.4	1	96.1	83.7	> 100	–	–	–	–	–	–	–	–	–	–
COC(=O)Nc1nc2cc(C(=O)c3cccs3)ccc2[nH]1 [NOCODAZOLE]	–	–	–	–	–	–	–	–	–	–	–	91.7	–	–	–	–	–	–
COc1cc2c(c(OC)c1OC)-c1c(cc3c(c1OC)OCO3)C[C@H](C)[C@@](C)(O)C2=O	75.1	88.6	72.3	83.1	1.2	94.8	73.1	> 100	–	–	–	–	–	–	–	–	–	–
COc1cc2c(c(OC)c1OC)-c1c(cc3c(c1OC)OCO3)C[C@H](C)[C@@](C)(O)[C@H]2O	68.3	78.4	86.7	87.4	1.14	94.2	81.2	> 100	–	–	–	–	–	–	–	–	–	–
COc1cc2c(c(OC)c1OC)-c1c(cc3c(c1OC)OCO3)C[C@H](C)[C@@](C)(O)/C2=N/O	83.4	84.9	81.4	94.7	1.05	96.4	79.5	> 100	–	–	–	–	–	–	–	–	–	–
COc1cc2c(c(OC)c1OC)-c1c(cc3c(c1OC)OCO3)C[C@H](C)[C@@](C)(O)/C2=N/OCc1cn(CC(=O)Nc2ccc(I)cc2Cl)nn1	86.4	92.1	81.6	98.7	1.01	97.5	82.9	> 100	–	–	–	–	–	–	–	–	–	–
COc1ccc(/C=C\c2cc(OC)c(OC)c(OC)c2)cc1O	–	–	–	–	–	–	–	–	0.15	–	–	–	–	–	–	–	–	–
COc1cccc2c1C(=O)c1c(O)c3c(c(O)c1C2=O)C[C@@](O)(C(=O)CO)C[C@@H]3O[C@H]1C[C@H](N)[C@H](O)[C@H](C)O1 [DOXORUBICIN]	1.5	1.9	2.3	2.4	–	1.6	–	10	–	–	–	–	–	–	–	–	–	–
COc1cccc(-n2cc(CO/N=C3\c4cc(OC)c(OC)c(OC)c4-c4c(cc5c(c4OC)OCO5)C[C@H](C)[C@@]3(C)O)nn2)c1	92.1	98	77.4	95.8	1.1	96.4	82.1	> 100	–	–	–	–	–	–	–	–	–	–
COc1cc2c(c(OC)c1OC)-c1c(cc3c(c1OC)OCO3)C[C@H](C)[C@@](C)(O)/C2=N/OCc1cn(-c2cc([N+](=O)[O-])ccc2Cl)nn1	94.5	93.4	86.4	95.1	1.1	96.4	85.7	> 100	–	–	–	–	–	–	–	–	–	–
COc1cc2c(c(OC)c1OC)-c1c(cc3c(c1OC)OCO3)C[C@H](C)[C@@](C)(O)/C2=N/OCc1cn(-c2ccc([N+](=O)[O-])c(Cl)c2)nn1	–	–	8.6	12.8	–	7.9	11.4	50.2	–	Dose-dependent effect	–	–	Dose-dependent effect	37.11	Active	43.06	46.83	1.25
C#CCO/N=C1\c2cc(OC)c(OC)c(OC)c2-c2c(cc3c(c2OC)OCO3)C[C@H](C)[C@@]1(C)O	96.1	97.2	82.6	99.5	1.01	98.1	80.4	> 100	–	–	–	–	–	–	–	–	–	–
COc1ccc(OC)c(-n2cc(CO/N=C3\c4cc(OC)c(OC)c(OC)c4-c4c(cc5c(c4OC)OCO5)C[C@H](C)[C@@]3(C)O)nn2)c1	74.3	81.2	76.5	86.7	1.1	91.8	73.8	> 100	–	–	–	–	–	–	–	–	–	–
COc1cc(OC)c(-n2cc(CO/N=C3\c4cc(OC)c(OC)c(OC)c4-c4c(cc5c(c4OC)OCO5)C[C@H](C)[C@@]3(C)O)nn2)cc1OC	69.5	76.8	76.8	86.2	1.1	87.5	72.8	> 100	–	–	–	–	–	–	–	–	–	–
COc1cc2c(c(OC)c1OC)-c1c(cc3c(c1OC)OCO3)C[C@H](C)[C@@](C)(O)/C2=N/OCc1cn(-c2ccccc2C#N)nn1	86.4	87.3	79.8	92.7	1.1	94.2	71.1	> 100	–	–	–	–	–	–	–	–	–	–
